Data taken from patent EP1003508B1, “ANTIMUTAGENIC AGENTS” (The GRASSETTI Family Trust, priority 1997, dated 1999).
Where two headings read alike, the source gives them in different places.

Columns and labels:
[1] = tested on: metastases; details: mice; Grassetti 1970, Nature 228:282; cited from earlier work
[2] = tested on: Salmonella Typhimurium bacteria T-100; experiment: microbe, parasite or virus in culture; assay type: cell-based; details: for Number of Colonies Per Plate With Inhibitor: inhibitor 0.3 mg/plate added one hour before carcinogen, average of 3; for inhibition at 0.3 mg/plate: Salmonella enterica, TYPHIMURIUM
[3] = Observed toxicity / tolerability; details: can be taken in doses of at least approximately 0.1 gram per day for indefinite periods
Excerpt: It can be taken in doses of at least approximately 0.1 gram per day for indefinite periods. This fills the requirements for a non-toxic, low-cost chemopreventive agent, which could be administered orally.

[4] = target: T1, poly(ADP-ribose) polymerase (ADPRP) (Sus scrofa, UniProt I3LDH3); experiment: Inhibition of ADPRP enzyme activity; assay type: biochemical, pig
T1 construct: ADPRP was prepared from pig thymus using the method of Khan and Shall; from tissue; host or cells: pig thymus
Procedure: ADPRP was prepared from pig thymus using the method of Khan and Shall (Biochem. Soc. Transactions 4:778 (1976)) with various modifications. Enzyme activity was approximately linear up to 15-20 minutes with NAD substrate concentration of 25 µM. Typical maximum enzyme activity was around 0.003 nmol product formed/minute in the assay (i.e. approximately 0.1% of substrate utilized). KM was approximately 25 µM.
Using a standard assay mix containing 2mM dithiothreitol (DTT) and […] crude enzyme/ml incubation, three experiments were performed with 6,6'-dithiodinicotinic acid added at concentrations varying from 5 µg/ml to 600 µg/ml (i.e. 1/60th molar equivalent of DTT to 2 molar equivalents). […] INHIBITION % OF CONTROLS
These are values for individual incubations which were stopped at either 7.5, 15, or 20 minutes.

[5] = 2mM DTT, individual incubation, read-out: Percent Inhibition at: 7.5 min.
[6] = 2mM DTT, individual incubation, read-out: Percent Inhibition at: 15 min.

T1 sequence (I3LDH3 1-1017): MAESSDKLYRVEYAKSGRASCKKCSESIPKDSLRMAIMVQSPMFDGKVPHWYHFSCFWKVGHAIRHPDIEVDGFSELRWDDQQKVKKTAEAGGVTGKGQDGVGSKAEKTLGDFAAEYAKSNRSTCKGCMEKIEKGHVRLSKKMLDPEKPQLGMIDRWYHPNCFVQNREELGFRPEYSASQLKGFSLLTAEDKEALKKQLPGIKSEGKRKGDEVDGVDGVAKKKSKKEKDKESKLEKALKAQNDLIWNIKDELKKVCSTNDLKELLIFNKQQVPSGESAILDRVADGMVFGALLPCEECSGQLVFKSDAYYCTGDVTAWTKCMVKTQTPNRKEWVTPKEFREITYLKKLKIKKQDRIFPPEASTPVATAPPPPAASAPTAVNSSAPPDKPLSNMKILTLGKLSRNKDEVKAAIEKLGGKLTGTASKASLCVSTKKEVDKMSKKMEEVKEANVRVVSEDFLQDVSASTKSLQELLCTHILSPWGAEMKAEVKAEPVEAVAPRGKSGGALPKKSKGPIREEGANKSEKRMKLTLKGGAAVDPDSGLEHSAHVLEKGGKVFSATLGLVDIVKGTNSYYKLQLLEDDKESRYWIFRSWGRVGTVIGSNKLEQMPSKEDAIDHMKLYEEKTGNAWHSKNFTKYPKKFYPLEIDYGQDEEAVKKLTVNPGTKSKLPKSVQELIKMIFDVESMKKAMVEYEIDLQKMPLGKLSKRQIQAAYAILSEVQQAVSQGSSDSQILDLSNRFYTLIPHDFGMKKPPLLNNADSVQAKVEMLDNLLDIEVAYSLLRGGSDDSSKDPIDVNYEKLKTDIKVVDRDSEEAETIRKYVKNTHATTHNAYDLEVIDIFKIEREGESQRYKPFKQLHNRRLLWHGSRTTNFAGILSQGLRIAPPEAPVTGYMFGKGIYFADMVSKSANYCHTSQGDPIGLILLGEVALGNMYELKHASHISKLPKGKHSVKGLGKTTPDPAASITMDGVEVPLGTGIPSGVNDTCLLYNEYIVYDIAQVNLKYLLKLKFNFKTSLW

Which prevention of metastases [1] does the source give for `O=C(O)c1ccc(SSc2ccc(C(=O)O)cn2)nc1` [6,6'-dithiodinicotinic acid] here?
Its prevention of metastases is “known to prevent metastases in mice”.

And the “Number of Colonies Per Plate With Inhibitor” value ([2]; 2-Aflatoxin 0 (control) µg/plate)?
The value was 104.

What about the “Number of Colonies Per Plate With Inhibitor” value ([2]; 2-Aflatoxin 20 µg/plate) of the same molecule?
The value was 188.

What about the “Number of Colonies Per Plate With Inhibitor” value ([2]; 2-Aflatoxin 50 µg/plate) of the same molecule?
The value was 358.

And the “Number of Colonies Per Plate With Inhibitor” value ([2]; 2-Aflatoxin 100 µg/plate)?
Its value is 471.

And the “Number of Colonies Per Plate With Inhibitor” value ([2]; 2-Aminofluorene 0 (control) µg/plate)?
The value was 141.

And the “Number of Colonies Per Plate With Inhibitor” value ([2]; 2-Aminofluorene 5.0 µg/plate)?
Its value is 705.

And the “Number of Colonies Per Plate With Inhibitor” value ([2]; 2-Aminofluorene 15.0 µg/plate)?
The value was 655.

And the “Number of Colonies Per Plate With Inhibitor” value ([2]; 2-Aminofluorene 25.0 µg/plate)?
The value was 791.

What about the “Number of Colonies Per Plate With Inhibitor” value ([2]; Benzo-[a]-pyrene 0 (control) µg/plate) of the same molecule?
Its value is 111.

What about the “Number of Colonies Per Plate With Inhibitor” value ([2]; Benzo-[a]-pyrene 2.5 µg/plate) of the same molecule?
Its value is 339.

And the “Number of Colonies Per Plate With Inhibitor” value ([2]; Benzo-[a]-pyrene 5.0 µg/plate)?
The value was 446.

What about the “Number of Colonies Per Plate With Inhibitor” value ([2]; Benzo-[a]-pyrene 10.0 µg/plate) of the same molecule?
The value was 488.

And the inhibition at 0.3 mg/plate ([2]; 2-Aminofluorene 5.0 µg/plate, inhibitor 0.3 mg/plate, read-out: Decrease (%))?
The inhibition at 0.3 mg/plate was 10%.

What about the inhibition at 0.3 mg/plate ([2]; Benzo-[a]-pyrene 2.5 µg/plate, inhibitor 0.3 mg/plate, read-out: Decrease (%)) of the same molecule?
Its inhibition at 0.3 mg/plate is 74%.

And the inhibition at 0.3 mg/plate ([2]; Benzo-[a]-pyrene 5.0 µg/plate, inhibitor 0.3 mg/plate, read-out: Decrease (%))?
The inhibition at 0.3 mg/plate was 62%.

What about the inhibition at 0.3 mg/plate ([2]; Benzo-[a]-pyrene 10.0 µg/plate, inhibitor 0.3 mg/plate, read-out: Decrease (%)) of the same molecule?
The inhibition at 0.3 mg/plate was 58%.

And the inhibition at 0.3 mg/plate ([2]; read-out: Decrease (%), 2-Aflatoxin 0 (control) µg/plate, inhibitor 0.3 mg/plate)?
The inhibition at 0.3 mg/plate was 0%.

What about the inhibition at 0.3 mg/plate ([2]; read-out: Decrease (%), 2-Aflatoxin 20 µg/plate, inhibitor 0.3 mg/plate) of the same molecule?
Its inhibition at 0.3 mg/plate is 63%.

And the inhibition at 0.3 mg/plate ([2]; read-out: Decrease (%), 2-Aflatoxin 50 µg/plate, inhibitor 0.3 mg/plate)?
Its inhibition at 0.3 mg/plate is 68%.

And the inhibition at 0.3 mg/plate ([2]; read-out: Decrease (%), 2-Aflatoxin 100 µg/plate, inhibitor 0.3 mg/plate)?
Its inhibition at 0.3 mg/plate is 72%.

And the inhibition at 0.3 mg/plate ([2]; read-out: Decrease (%), 2-Aminofluorene 0 (control) µg/plate, inhibitor 0.3 mg/plate)?
Its inhibition at 0.3 mg/plate is 0%.

And the inhibition at 0.3 mg/plate ([2]; read-out: Decrease (%), 2-Aminofluorene 15.0 µg/plate, inhibitor 0.3 mg/plate)?
The inhibition at 0.3 mg/plate was 72%.

And the inhibition at 0.3 mg/plate ([2]; read-out: Decrease (%), 2-Aminofluorene 25.0 µg/plate, inhibitor 0.3 mg/plate)?
The inhibition at 0.3 mg/plate was 63%.

What about the inhibition at 0.3 mg/plate ([2]; read-out: Decrease (%), Benzo-[a]-pyrene 0 (control) µg/plate, inhibitor 0.3 mg/plate) of the same molecule?
Its inhibition at 0.3 mg/plate is 0%.

And the inhibition at 0.3 mg/plate ([2]; read-out: number of mutants decreased, present in the culture prior to addition of carcinogen (benzo-[a]-pyrene, 2-aflatoxin, or 2-aminofluorene))?
Its inhibition at 0.3 mg/plate is roughly 70%.

What about the “mutagenic effect of carcinogenic chemicals” value ([2]; benzo-[a]-pyrene, 2-aflatoxin, and 2-aminofluorene) of the same molecule?
Its value is “greatly diminished”.

What about the toxicity [3] of the same molecule?
Its toxicity is “not a toxic compound”.

And the inhibition at 5 µg/mL [4, 5]?
Its inhibition at 5 µg/mL is 0%.

What about the inhibition at 5 µg/mL [4, 6] of the same molecule?
Its inhibition at 5 µg/mL is 14%.

What about the inhibition at 25 µg/mL [4, 5] of the same molecule?
The inhibition at 25 µg/mL was 0%.

What about the inhibition at 25 µg/mL [4, 6] of the same molecule?
Its inhibition at 25 µg/mL is 0%.

And the inhibition at 50 µg/mL [4, 5]?
The inhibition at 50 µg/mL was 37%.

And the inhibition at 50 µg/mL [4, 6]?
Its inhibition at 50 µg/mL is 38%.

What about the inhibition at 100 µg/mL [4, 5] of the same molecule?
The inhibition at 100 µg/mL was 68%.

What about the inhibition at 100 µg/mL [4, 6] of the same molecule?
Its inhibition at 100 µg/mL is 54%.

And the inhibition at 150 µg/mL ([4]; 150 µg/ml, 2mM DTT, individual incubation, read-out: Percent Inhibition at: 7.5 min.)?
Its inhibition at 150 µg/mL is 88%.

What about the inhibition at 150 µg/mL ([4]; 150 µg/ml, 2mM DTT, individual incubation, read-out: Percent Inhibition at: 15 min.) of the same molecule?
Its inhibition at 150 µg/mL is 70%.

And the inhibition at 150 µg/mL ([4]; 150 µg/ml, 2mM DTT, individual incubation, read-out: Percent Inhibition at: 20 min.)?
Its inhibition at 150 µg/mL is 90%.

And the “extent of conversion of substrate to bound product after addition of excess DTT” value ([4]; 150 µg/ml, excess DTT added to incubation)?
The value was “did not increase”.

What about the inhibition at 300 µg/mL ([4]; 300 µg/ml, 2mM DTT, individual incubation, read-out: Percent Inhibition at: 20 min.) of the same molecule?
The inhibition at 300 µg/mL was 93%.

And the inhibition at 600 µg/mL ([4]; 600 µg/ml, 2mM DTT, individual incubation, read-out: Percent Inhibition at: 20 min.)?
Its inhibition at 600 µg/mL is 83%.

What about the “inhibition of ADPRP” value ([4]; at 50 µg/ml, 2mM DTT) of the same molecule?
Its value is “Significant and specific inhibition”.

And the “inhibition of ADPRP” value ([4]; at 150 µg/ml and above (0.5 molar equivalents of DTT and above))?
Its value is “almost complete inhibition”.

And the “inhibition of ADPRP” value ([4]; at 5 and 25 µg/ml)?
The value was “No inhibition”.
